Laboratory results reported in ChEMBL document CHEMBL1155962, “Dihydropyrazolopyrimidines containing benzimidazoles as K(V)1.5 potassium channel antagonists” (Bioorg Med Chem Lett, 2009).
Activity calls are given as the source filed them. The calls are words filed in the database; no cut-off is given here.

How the values were obtained:
[1] = target: T1, Potassium voltage-gated channel subfamily A member 5 (Homo sapiens, UniProt P22460); test: Inhibition of human Kv1.5 channel expressed in mouse L929 cells; assay type: cell-based
T1 sequence (P22460 whole entry): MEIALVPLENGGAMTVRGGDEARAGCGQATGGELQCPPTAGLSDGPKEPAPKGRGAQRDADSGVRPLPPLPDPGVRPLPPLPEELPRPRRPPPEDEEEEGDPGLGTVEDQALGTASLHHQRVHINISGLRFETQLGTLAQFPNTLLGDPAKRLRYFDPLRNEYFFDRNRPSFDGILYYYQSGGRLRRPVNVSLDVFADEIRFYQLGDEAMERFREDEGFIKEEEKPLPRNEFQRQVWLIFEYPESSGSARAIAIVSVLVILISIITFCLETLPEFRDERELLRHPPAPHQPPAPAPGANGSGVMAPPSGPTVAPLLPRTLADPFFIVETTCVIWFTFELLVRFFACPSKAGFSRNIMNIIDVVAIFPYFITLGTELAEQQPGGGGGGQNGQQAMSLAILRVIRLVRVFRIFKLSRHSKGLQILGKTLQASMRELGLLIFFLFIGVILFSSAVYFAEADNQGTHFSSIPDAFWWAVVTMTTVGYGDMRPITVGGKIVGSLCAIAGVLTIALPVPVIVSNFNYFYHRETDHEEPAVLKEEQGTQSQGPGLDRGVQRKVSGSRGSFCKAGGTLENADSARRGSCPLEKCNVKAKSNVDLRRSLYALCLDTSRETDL

[2] = target: T1, Potassium voltage-gated channel subfamily A member 5; test: Inhibition of human Kv1.5 channel expressed in mouse L929 cells at >1 uM; assay type: cell-based
hERG (KCNH2) = hERG (KCNH2) (Homo sapiens, UniProt Q12809); test: Inhibition of human ERG at 10 uM
Sequence of hERG (KCNH2) (Q12809 whole entry): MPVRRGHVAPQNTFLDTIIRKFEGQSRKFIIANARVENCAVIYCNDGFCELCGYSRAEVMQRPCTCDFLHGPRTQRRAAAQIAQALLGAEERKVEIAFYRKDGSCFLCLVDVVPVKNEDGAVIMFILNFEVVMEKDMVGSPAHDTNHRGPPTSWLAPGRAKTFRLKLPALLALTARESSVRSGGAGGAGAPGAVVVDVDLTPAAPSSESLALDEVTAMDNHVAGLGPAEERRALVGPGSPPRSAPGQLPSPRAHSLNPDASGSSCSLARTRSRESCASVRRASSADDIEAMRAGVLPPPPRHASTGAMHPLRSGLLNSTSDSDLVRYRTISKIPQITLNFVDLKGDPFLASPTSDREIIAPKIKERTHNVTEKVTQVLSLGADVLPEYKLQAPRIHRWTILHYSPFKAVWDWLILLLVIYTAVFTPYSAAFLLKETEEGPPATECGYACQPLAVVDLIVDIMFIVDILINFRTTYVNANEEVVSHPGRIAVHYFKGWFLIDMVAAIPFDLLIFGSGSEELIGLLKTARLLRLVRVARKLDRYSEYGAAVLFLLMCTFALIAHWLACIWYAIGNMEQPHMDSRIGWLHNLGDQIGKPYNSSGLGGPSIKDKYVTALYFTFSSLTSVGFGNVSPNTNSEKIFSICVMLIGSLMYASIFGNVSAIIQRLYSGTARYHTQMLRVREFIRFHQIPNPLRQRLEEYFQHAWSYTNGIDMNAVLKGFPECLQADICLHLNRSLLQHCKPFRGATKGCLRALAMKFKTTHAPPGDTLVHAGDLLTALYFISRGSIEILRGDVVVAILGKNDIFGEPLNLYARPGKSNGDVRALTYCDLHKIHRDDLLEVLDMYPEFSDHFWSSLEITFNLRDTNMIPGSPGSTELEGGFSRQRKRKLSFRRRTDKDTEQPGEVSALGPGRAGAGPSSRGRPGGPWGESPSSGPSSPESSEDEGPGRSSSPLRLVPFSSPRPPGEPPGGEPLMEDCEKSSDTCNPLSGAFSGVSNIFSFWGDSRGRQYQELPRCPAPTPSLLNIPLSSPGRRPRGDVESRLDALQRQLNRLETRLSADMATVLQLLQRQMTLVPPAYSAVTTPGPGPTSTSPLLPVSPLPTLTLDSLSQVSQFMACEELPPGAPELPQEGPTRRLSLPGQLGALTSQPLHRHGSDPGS

[3] = Inhibition of sodium channel at 10 uM
[4] = Oral bioavailability in rat at 20 umol/kg; assay type: ADME, organism-based; settings: in vivo
[5] = Terminal half life in rat at 10 umol/kg, intra-arterial for 10 mins; assay type: ADME, organism-based; settings: in vivo, read-out: beta t1/2 (converted)
[6] = Plasma clearance in rat at 10 umol/kg, intra-arterial for 10 mins; assay type: ADME, organism-based
[7] = Volume of distribution at steady state in rat at 10 umol/kg, intra-arterial for 10 mins; assay type: ADME, organism-based; settings: in vivo, read-out: Vdss
Homo sapiens = organism: Homo sapiens; test: Selectivity for human Kv1.5 channel over human ERG
[8] = Selectivity for human Kv1.5 channel over sodium channel
[9] = Selectivity for human Kv1.5 channel over calcium channel
[10] = Inhibition of calcium channel at 10 uM
Oryctolagus cuniculus [11] = test: Prolongation of effective refractory period in rabbit atrium at 3 mg/kg; assay type: functional, Cardiac atrium
Oryctolagus cuniculus [12] = test: Prolongation of effective refractory period in rabbit ventricle at 0.3 to 10 mg/kg; assay type: functional, organism-based

CC1=C(c2nc3cc(Cl)ccc3n2C)C(c2ccc(Cl)c(Cl)c2)n2nccc2N1 (stereo not drawn)
IC50 [1]: 0.068 µM

CC1=C(c2nc3c(F)cccc3n2C)C(c2ccc(Cl)c(Cl)c2)n2nccc2N1 (stereo not drawn)
IC50 [1]: 0.064 µM

CCCCc1nnc(C2=C(C)Nc3ccnn3C2c2ccc(Cl)c(Cl)c2)o1 (stereo not drawn)
IC50 [1]: > 1 µM | inhibition [2]: 29%

CC1=C(c2nc3ccccc3s2)C(c2ccc(Cl)c(Cl)c2)n2nccc2N1 (stereo not drawn)
IC50 [1]: 0.74 µM

CCCn1c(C2=C(C)Nc3ccnn3C2c2ccc(Cl)c(Cl)c2)nc2cc(F)ccc21 (stereo not drawn)
IC50 [1]: 0.048 µM

CC1=C(c2nc3cccc(F)c3n2C)C(c2ccc(Cl)c(Cl)c2)n2nccc2N1 (stereo not drawn)
IC50 [1]: 0.15 µM

COC(=O)c1ccc2c(c1)nc(C1=C(C)Nc3ccnn3C1c1ccc(Cl)c(Cl)c1)n2C (stereo not drawn)
IC50 [1]: 0.2 µM

CC1=C(c2nc3ccccc3n2C)C(c2ccc(Cl)c(Cl)c2)n2nccc2N1 (stereo not drawn)
IC50 [1]: 0.075 µM

CC1=C(c2nc3cc(F)ccc3n2C)C(c2ccc(Cl)c(Cl)c2)n2nccc2N1 (stereo not drawn)
IC50 [1]: 0.015 µM | inhibition at 10 µM (hERG (KCNH2)): 83% | inhibition [3]: 37% | bioavailability [4]: 51% | half-life [5]: 0.57 h | clearance [6]: 2.1 L/h/kg | Vd [7]: 1.6 L/kg | Selectivity ratio (Homo sapiens): > 200 | Selectivity ratio [8]: > 200 | Selectivity ratio [9]: > 200

CC1=C(c2nc3cc(C#N)ccc3n2C)C(c2ccc(Cl)c(Cl)c2)n2nccc2N1 (stereo not drawn)
IC50 [1]: 0.22 µM

CC1=C(c2nc3cc(S(C)(=O)=O)ccc3n2C)C(c2ccc(Cl)c(Cl)c2)n2nccc2N1 (stereo not drawn)
IC50 [1]: > 1 µM | inhibition [2]: 29%

CC1=C(c2nc3cc(S(=O)(=O)Nc4ccccc4)ccc3n2C)C(c2ccc(Cl)c(Cl)c2)n2nccc2N1 (stereo not drawn)
IC50 [1]: > 1 µM | inhibition [2]: 30%

CC1=C(c2nc3cccc(Cl)c3n2C)C(c2ccc(Cl)c(Cl)c2)n2nccc2N1 (stereo not drawn)
IC50 [1]: 0.071 µM

CC1=C(c2nc3ccc(C)cc3n2C)C(c2ccc(Cl)c(Cl)c2)n2nccc2N1 (stereo not drawn)
IC50 [1]: 0.98 µM

CC1=C(c2nc3ccccc3[nH]2)C(c2ccc(Cl)c(Cl)c2)n2nccc2N1 (stereo not drawn)
IC50 [1]: 0.51 µM

CC1=C(c2nc3cccc(C)c3[nH]2)C(c2ccc(Cl)c(Cl)c2)n2nccc2N1 (stereo not drawn)
IC50 [1]: 0.15 µM

CC1=C(c2ncc(-c3ccccc3)o2)C(c2ccc(Cl)c(Cl)c2)n2nccc2N1 (stereo not drawn)
IC50 [1]: > 1 µM | inhibition [2]: 25%

CCn1c(C2=C(C)Nc3ccnn3C2c2ccc(Cl)c(Cl)c2)nc2cc(Cl)ccc21 (stereo not drawn)
IC50 [1]: 0.057 µM

CC1=C(c2nc3cc(C(F)(F)F)ccc3n2C)C(c2ccc(Cl)c(Cl)c2)n2nccc2N1 (stereo not drawn)
IC50 [1]: 0.54 µM

CC(=O)Nc1ccc2c(c1)nc(C1=C(C)Nc3ccnn3C1c1ccc(Cl)c(Cl)c1)n2C (stereo not drawn)
IC50 [1]: > 1 µM | inhibition [2]: 8%

CC1=C(c2nc3ccc(Cl)cc3n2C)C(c2ccc(Cl)c(Cl)c2)n2nccc2N1 (stereo not drawn)
IC50 [1]: 0.66 µM

COCC1=C(c2nc3cc(F)ccc3n2C)C(c2ccc(Cl)c(Cl)c2)n2nccc2N1 (stereo not drawn)
IC50 [1]: 0.03 µM | inhibition at 10 µM (hERG (KCNH2)): 47% | inhibition [3]: 27% | inhibition [10]: 13% | bioavailability [4]: 37% | half-life [5]: 1.5 h | clearance [6]: 2.52 L/h/kg | Vd [7]: 2.1 L/kg | Selectivity ratio (Homo sapiens): > 200 | Selectivity ratio [8]: > 200 | Selectivity ratio [9]: > 200 | Activity (Oryctolagus cuniculus [11]): >20% | Activity (Oryctolagus cuniculus [12]): inactive

CC1=C(c2nc3cc(C)ccc3n2C)C(c2ccc(Cl)c(Cl)c2)n2nccc2N1 (stereo not drawn)
IC50 [1]: 0.2 µM

CC1=C(c2nc3cccc(C)c3n2C)C(c2ccc(Cl)c(Cl)c2)n2nccc2N1 (stereo not drawn)
IC50 [1]: 0.11 µM

CC1=C(c2nnc(-c3ccccc3)o2)C(c2ccc(Cl)c(Cl)c2)n2nccc2N1 (stereo not drawn)
IC50 [1]: > 1 µM | inhibition [2]: 18%

CC1=C(c2nc3cc(Cl)ccc3n2C(C)C)C(c2ccc(Cl)c(Cl)c2)n2nccc2N1 (stereo not drawn)
IC50 [1]: 0.094 µM
